Test results reported in patent publication US20110039763A1, “TARGETED ANTIMICROBIAL MOIETIES” (C3 JIAN, INC., priority 2009, published 2011).
Entries after “also recorded” stand apart in the source; their conditions may differ. Square brackets hold non-standard residues; d marks the D form. Ends that are not written are not given here. Aib = CC(C)(N)C(=O)O

Each substance was assayed on microorganisms (assay: Targeting peptide binding to target microorganisms (Tables 3, 10, 12)). Conditions: microorganism(s) the targeting peptide binds; binding in aqueous buffers varied with peptide solubility, preferably 1x PBS.
“PF-712 (QIYRHVHKVQAKSANLRLY; Peptide with targeting and/or antimicrobial activity)” was tested, and the “Target(s)” value was “S. mutans; also recorded: E. coli”. In the case of “PF-714 (FVVTQRMLRMYKK; Peptide with targeting and/or antimicrobial activity)”, the “Target(s)” value is reported as “L. pneumophila”. For “PF-716 (HGENHHHKSDEKDNDSSEKKD; Peptide with targeting and/or antimicrobial activity)”, the “Target(s)” value was “S. mutans”. For “PF-717 (PQSEVTFENIYAPKANGGGLYGI; Peptide with targeting and/or antimicrobial activity)”, the “Target(s)” value was “E. coli”. With “PF-720 (SLDMGK; Peptide with targeting and/or antimicrobial activity)” the “Target(s)” value was “S. mutans”. “PF-724 (CYRFLTPKRPTRIS; Peptide with targeting and/or antimicrobial activity)” was tested, and the “Target(s)” value was “L. pneumophila”. “PF-727 (AYARCRHDYPFTLGQMQTH; Peptide with targeting and/or antimicrobial activity)” was tested, and the “Target(s)” value was “S. mutans; also recorded: E. coli”. For “PF-728 (AIGQEQDRREYYYYSGYPYYY; Peptide with targeting and/or antimicrobial activity)”, the “Target(s)” value was “S. mutans; also recorded: E. coli”. “PF-731 (RHKLIRLPLSESVFCFLNNPKI; Peptide with targeting and/or antimicrobial activity)” was tested, and the “Target(s)” value was “L. pneumophila”. With “PF-732 (DRPSQTTHHTLSSSRITGPS; Peptide with targeting and/or antimicrobial activity)” the “Target(s)” value was “E. coli”. “PF-733 (VISRQMGSEAVLELFIIM; Peptide with targeting and/or antimicrobial activity)” was tested, and the “Target(s)” value was “S. mutans; also recorded: E. coli”. For “PF-735 (YDPLFPNDKN; Peptide with targeting and/or antimicrobial activity)”, the “Target(s)” value was “S. mutans; also recorded: E. coli”. In the case of “PF-750 (AESSPAKTTA; Peptide with targeting and/or antimicrobial activity)”, the “Target(s)” value is reported as “M. luteus; also recorded: C. jeikeium”. For “PF-751 (AESSPAQETT; Peptide with targeting and/or antimicrobial activity)”, the “Target(s)” value was “S. epidermidis; also recorded: E. coli; also recorded: C. albicans; also recorded: C. jeikeium”. With “PF-765 (YLYWEVEHKPIIAKRDAYYAQLRKQKEIEEGA; Peptide with targeting and/or antimicrobial activity)” the “Target(s)” value was “S. epidermidis and M. luteus and E. coli and MRSA and E. faecalis and C. jeikeium”. “PF-766 (DAYYAQLRKQKEIEEGA; Peptide with targeting and/or antimicrobial activity)” was tested, and the “Target(s)” value was “S. epidermidis and M. luteus and C. albicans and MRSA and E. faecalis and C. jeikeium”. With “PF-767 (DGKQGEPVALKPTDN; Peptide with targeting and/or antimicrobial activity)” the “Target(s)” value was “S. epidermidis and M. luteus and E. coli and MRSA and S. pneumoniae and E. faecalis and C. jeikeium”. In the case of “PF-768 (GFRGGKRGGARG; Peptide with targeting and/or antimicrobial activity)”, the “Target(s)” value is reported as “S. epidermidis; also recorded: S. pneumoniae; also recorded: E. faecalis; also recorded: C. jeikeium”. “PF-772 (TKESSS; Peptide with targeting and/or antimicrobial activity)” was tested, and the “Target(s)” value was “S. epidermidis and C. albicans and MRSA and S. pneumoniae and C. jeikeium”. In the case of “PF-773 (TLKESK; Peptide with targeting and/or antimicrobial activity)”, the “Target(s)” value is reported as “S. epidermidis; also recorded: C. albicans; also recorded: C. jeikeium”. With “PF-777 (PGADGKLAEASAAIARLVRS; Peptide with targeting and/or antimicrobial activity)” the “Target(s)” value was “Mycobacteria spp”. In the case of “PF-778 (MNLILTAHGT; Peptide with targeting and/or antimicrobial activity)”, the “Target(s)” value is reported as “Mycobacteria spp”. “PF-779 (IYGDFFNFYLCDISLKVNGLQPGGPVRTVKLFGQPTGRCTPQ; Peptide with targeting and/or antimicrobial activity)” was tested, and the “Target(s)” value was “Mycobacteria spp”. In the case of “PF-780 (AVYDALVALAAAEHRAELATRDARAKDTYEKIGVHVVVAA; Peptide with targeting and/or antimicrobial activity)”, the “Target(s)” value is reported as “Mycobacteria spp”. In the case of “PF-781 (PLVVVNHRRAERSRG; Peptide with targeting and/or antimicrobial activity)”, the “Target(s)” value is reported as “Mycobacteria spp”. In the case of “PF-782 (TGPRRGIDLTSNRALSEVLDEGLELNSRK; Peptide with targeting and/or antimicrobial activity)”, the “Target(s)” value is reported as “Mycobacteria spp”. With “PF-783 (FTSEVRGVFTYRVNKAGLITNMRGYWNLDMMTFGNQE; Peptide with targeting and/or antimicrobial activity)” the “Target(s)” value was “Mycobacteria spp”. “PF-784 (MAMTTVDNIVGLVIAVALMAFLFAALLFPEKF; Peptide with targeting and/or antimicrobial activity)” was tested, and the “Target(s)” value was “Mycobacteria spp”. In the case of “PF-785 (MRPQHSPAGKAFVVKKITHEQS; Peptide with targeting and/or antimicrobial activity)”, the “Target(s)” value is reported as “Mycobacteria spp”. “PF-786 (LSERERRRLKRGII; Peptide with targeting and/or antimicrobial activity)” was tested, and the “Target(s)” value was “Mycobacteria spp”. “PF-787 (MTERQRRALLKQHPEVVSWSDYLEKRKRRTGTAG; Peptide with targeting and/or antimicrobial activity)” was tested, and the “Target(s)” value was “Mycobacteria spp”. In the case of “PF-788 (GLITVFAGTARILQLRRAAKKTHAAALR; Peptide with targeting and/or antimicrobial activity)”, the “Target(s)” value is reported as “Mycobacteria spp”. For “PF-789 (PRGAQSGHG; Peptide with targeting and/or antimicrobial activity)”, the “Target(s)” value was “Mycobacteria spp”. In the case of “PF-790 (PAGPDHLDQRDHR; Peptide with targeting and/or antimicrobial activity)”, the “Target(s)” value is reported as “Mycobacteria spp”. For “PF-791 (IFLTTQNTDYSEHNAA; Peptide with targeting and/or antimicrobial activity)”, the “Target(s)” value was “S. mutans”. “PF-792 (ALHASGIQAI; Peptide with targeting and/or antimicrobial activity)” was tested, and the “Target(s)” value was “S. mutans”. With “PF-793 (YTQ[Aib]NNASAYAMLLTNKDTVP; ends and bridges not checked)” the “Target(s)” value was “S. mutans”. “PF-794 (NLYFENQGN; Peptide with targeting and/or antimicrobial activity)” was tested, and the “Target(s)” value was “S. mutans”. For “PF-795 (ALHKSGIQVIADWVPDQIYN; Peptide with targeting and/or antimicrobial activity)”, the “Target(s)” value was “S. mutans”. In the case of “PF-796 (YTQSNIPTAYALMLSNKDSI; Peptide with targeting and/or antimicrobial activity)”, the “Target(s)” value is reported as “S. mutans”. “PF-797 (WYYFDNNGYM; Peptide with targeting and/or antimicrobial activity)” was tested, and the “Target(s)” value was “S. mutans”. “PF-798 (ALHSKGIKVMADWVPDQMYA; Peptide with targeting and/or antimicrobial activity)” was tested, and the “Target(s)” value was “S. mutans”. For “PF-799 (YTHYNTALSYALLLTNKSSVP; Peptide with targeting and/or antimicrobial activity)”, the “Target(s)” value was “S. mutans”.
